Test results published in the supplement of paper PMC10307832.

Legend:
Assay in all cases: relative viability (nuclei count vs DMSO), 5 days (fraction); higher = more cells survive
[1] = compound: COc1cc(N2CCC(N3CCN(C)CC3)CC2)ccc1Nc1ncc(Cl)c(Nc2ccccc2S(=O)(=O)C(C)C)n1 [NVP-TAE684] + CC(=O)Nc1cccc(-n2c(=O)n(C3CC3)c(=O)c3c(Nc4ccc(I)cc4F)n(C)c(=O)c(C)c32)c1 [Trametinib] (partner 0.02 µM)
Summary of the method: (§1)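 Lung cancer cell lines, seeded in 1536-well plates, were treated the following day by pin tool with a single drug or with five library-drug doses (not always all listed) in √10 steps on top of a fixed anchor-drug dose. Cells were fixed and nuclei stained in one step after 5 days, and nuclei were counted. Relative viability is the nuclei count for treated wells divided by that for vehicle wells, reported as medians of duplicate plates.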

[2] = compound: COc1cc(N2CCC(N3CCN(C)CC3)CC2)ccc1Nc1ncc(Cl)c(Nc2ccccc2S(=O)(=O)C(C)C)n1 [NVP-TAE684] + O=C(CCCCCCC(=O)Nc1ccccc1)NO [Vorinostat] (partner 1 µM)
Summary of the method: as §1

[3] = compound: C1=CC=C2C(=C1)N=C(S2)C(C#N)C3=NC(=NC=C3)NCCC4=CN=CC=C4 + CC(=O)Nc1cccc(-n2c(=O)n(C3CC3)c(=O)c3c(Nc4ccc(I)cc4F)n(C)c(=O)c(C)c32)c1 [Trametinib] (partner 0.02 µM)
Summary of the method: as §1

[4] = compound: C#Cc1cccc(Nc2ncnc3cc(OC)c(OCCCCCCC(=O)NO)cc23)c1 [CUDC-101] + CC(=O)Nc1cccc(-n2c(=O)n(C3CC3)c(=O)c3c(Nc4ccc(I)cc4F)n(C)c(=O)c(C)c32)c1 [Trametinib] (partner 0.02 µM)
Summary of the method: as §1

Cell Line	relative viability ([1]; first compound 0.2 µM)	relative viability ([1]; first compound 0.6325 µM)	relative viability ([1]; first compound 2 µM)	relative viability ([2]; first compound 0.2 µM)	relative viability ([2]; first compound 0.6325 µM)	relative viability ([2]; first compound 2 µM)	relative viability ([3]; first compound 0.005 µM)	relative viability ([3]; first compound 0.01581 µM)	relative viability ([3]; first compound 0.05 µM)	relative viability ([3]; first compound 0.1581 µM)	relative viability ([3]; first compound 0.5 µM)	relative viability ([4]; first compound 0.01 µM)	relative viability ([4]; first compound 0.03162 µM)	relative viability ([4]; first compound 0.1 µM)	relative viability ([4]; first compound 0.3162 µM)	relative viability ([4]; first compound 1 µM)
NCI-H1355	0.399	0.398	0.3	0.561	0.605	0.327	0.439	0.425	0.473	0.494	0.324	0.423	0.399	0.411	0.46	0.317
NCI-H1648	0.395	0.433	0.284	0.27	0.541	0.181		0.486		0.499	0.498	0.461	0.595	0.437	0.351	0.277
NCI-H23	0.493	0.333	0.208	0.844	0.463	0.362		0.436	0.391	0.406	0.45	0.338	0.357	0.413	0.373	0.351
CAL-12T	0.283	0.251	0.127	0.786	0.615	0.245	0.278	0.327	0.395	0.34	0.384	0.311	0.381	0.373	0.41	0.335
HCC-44	0.982	1.08	0.926	1.18	1.14	0.928	1.06	1.1	1.02	1.07	0.967	1.04	1.08	1.04	1.05	1.03
NCI-H1755	0.769	0.846	0.729	0.768	0.744	0.635	0.764	0.736	0.746	0.848	0.761	0.794	0.761	0.784	0.792	0.812
SK-LU-1	0.42	0.445	0.383		0.822	0.487	0.461	0.437	0.413	0.532	0.474	0.475	0.439	0.551	0.663	0.456
NCI-H2126	0.628	0.637	0.388	0.808	0.732	0.443	0.536	0.613	0.559	0.546	0.58	0.552	0.545	0.56	0.522	0.415
NCI-H650	1.08	0.951	0.726	0.428	0.298	0.406	0.969	0.968	0.863	1.04	1.04	1.06	0.864	1.08	1.16	0.911
201T	0.712	0.716	0.629	1.02	1	0.831	0.675	0.756	0.739	0.748	0.693	0.734	0.711	0.714	0.69	0.701
LU99A	0.579	0.616	0.349	0.51	0.465	0.357	0.463	0.543		0.661	0.555	0.444	0.539	0.617	0.535	0.374
NCI-H647	0.483	0.489	0.216	0.792	0.6	0.174	0.407	0.515	0.45	0.546	0.451	0.461	0.411	0.543	0.538	0.443
LC-2-ad	0.881	0.926	0.669	0.725	0.665	0.251	0.881	0.979	0.891	0.928	0.829	0.929	0.913	0.912	0.823	0.773
LK-2		0.673	0.326	0.271	0.219	0.215	0.535	0.604	0.907	0.74	0.838	0.715	0.625	0.884	0.592	0.392
NCI-H520	0.73	0.695	0.204	0.776	0.681	0.313	0.659	0.684	0.765	0.799	0.824	0.572	0.688	0.788	0.674	0.251
NCI-H1975	0.325	0.335	0.215	0.694	0.666	0.263	0.377	0.362	0.293	0.414	0.329	0.38	0.322	0.347	0.692	0.319
